Results: PubChem BioAssay (NCI)
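How tested: cells in 96-well plates exposed to compound for 48 hours at five concentrations. Abbreviation: GI50, concentration required for 50% inhibition of growth. The concentration for full growth arrest is given as TGI.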

Assays:
Test in all cases: inhibition of tumour cell growth, NCI panel, 48 h
K-562 leukemia = system: K-562 leukemia
SK-MEL-28 melanoma = system: SK-MEL-28 melanoma
CAKI-1 renal = system: CAKI-1 renal
T-47D breast = system: T-47D breast
NCI-H460 lung = system: NCI-H460 lung
SF-295 CNS = system: SF-295 CNS
UACC-257 melanoma = system: UACC-257 melanoma
HT29 colon = system: HT29 colon
OVCAR-8 ovarian = system: OVCAR-8 ovarian
U251 CNS = system: U251 CNS
NCI-H226 lung = system: NCI-H226 lung
NCI-H23 lung = system: NCI-H23 lung
HCT-15 colon = system: HCT-15 colon
SF-268 CNS = system: SF-268 CNS
HOP-62 NSCLC = system: HOP-62 NSCLC
M14 melanoma = system: M14 melanoma
SK-MEL-2 melanoma = system: SK-MEL-2 melanoma
MCF7 breast = system: MCF7 breast
786-0 renal = system: 786-0 renal
UO-31 renal = system: UO-31 renal
HL-60(TB) leukemia = system: HL-60(TB) leukemia
MDA-MB-435 = system: MDA-MB-435
MDA-MB-231 breast = system: MDA-MB-231 breast
SR leukemia = system: SR leukemia
HS 578T breast = system: HS 578T breast
SK-MEL-5 melanoma = system: SK-MEL-5 melanoma
MOLT-4 leukemia = system: MOLT-4 leukemia
CCRF-CEM leukemia = system: CCRF-CEM leukemia
NCI/ADR-RES ovarian = system: NCI/ADR-RES ovarian
SF-539 CNS = system: SF-539 CNS
NCI-H522 lung = system: NCI-H522 lung
HOP-92 NSCLC = system: HOP-92 NSCLC
A498 renal = system: A498 renal
HCC-2998 colon = system: HCC-2998 colon
ACHN renal = system: ACHN renal
SNB-75 CNS = system: SNB-75 CNS
OVCAR-4 ovarian = system: OVCAR-4 ovarian
MALME-3M melanoma = system: MALME-3M melanoma
COLO 205 colon = system: COLO 205 colon
KM12 colon = system: KM12 colon
LOX IMVI melanoma = system: LOX IMVI melanoma
SNB-19 CNS = system: SNB-19 CNS
UACC-62 melanoma = system: UACC-62 melanoma
OVCAR-5 ovarian = system: OVCAR-5 ovarian
SK-OV-3 ovarian = system: SK-OV-3 ovarian
OVCAR-3 ovarian = system: OVCAR-3 ovarian
RXF 393 renal = system: RXF 393 renal
BT-549 breast = system: BT-549 breast
TK-10 renal = system: TK-10 renal
PC-3 prostate = system: PC-3 prostate
RPMI-8226 leukemia = system: RPMI-8226 leukemia
SN12C renal = system: SN12C renal
HCT-116 colon = system: HCT-116 colon
IGROV1 ovarian = system: IGROV1 ovarian
DU-145 prostate = system: DU-145 prostate
SW-620 colon = system: SW-620 colon
A549 NSCLC = system: A549 NSCLC

In the case of `c1cc(N[C@@H]2CCNC2)nc(-c2cnc3ccc(-c4cn[nH]c4)cn23)c1`, the GI50 (K-562 leukemia) is reported as 3.63 µM, the TGI (K-562 leukemia) is reported as over 55.6 µM and the GI50 (SK-MEL-28 melanoma) is reported as 4.35 µM. The TGI (SK-MEL-28 melanoma) was 16.9 µM, the GI50 (CAKI-1 renal) was over 47.9 µM and the TGI (CAKI-1 renal) was over 100 µM. It also gave a GI50 (T-47D breast) of 2.04 µM, a TGI (T-47D breast) of 9.3 µM and a GI50 (NCI-H460 lung) of 16.7 µM. It also gave a TGI (NCI-H460 lung) of 80.3 µM, a GI50 (SF-295 CNS) of 12 µM and a TGI (SF-295 CNS) of over 55 µM. For the same compound, the GI50 (UACC-257 melanoma) was 16.1 µM, the TGI (UACC-257 melanoma) was 53.3 µM and the GI50 (HT29 colon) was 12.1 µM. For the same compound, the TGI (HT29 colon) was over 96.8 µM, the GI50 (OVCAR-8 ovarian) was 6.47 µM and the TGI (OVCAR-8 ovarian) was over 92.8 µM. It also gave a GI50 (U251 CNS) of 3.11 µM, a TGI (U251 CNS) of 18.3 µM and a GI50 (NCI-H226 lung) of 4.13 µM. The TGI (NCI-H226 lung) was over 100 µM, the GI50 (NCI-H23 lung) was 5.07 µM and the TGI (NCI-H23 lung) was 35.9 µM. The GI50 (HCT-15 colon) was over 100 µM, the TGI (HCT-15 colon) was over 100 µM and the GI50 (SF-268 CNS) was 2.18 µM. It also gave a TGI (SF-268 CNS) of 7.1 µM, a GI50 (HOP-62 NSCLC) of 6.23 µM and a TGI (HOP-62 NSCLC) of 29.6 µM. For the same compound, the GI50 (M14 melanoma) was 13.7 µM, the TGI (M14 melanoma) was 44.9 µM and the GI50 (SK-MEL-2 melanoma) was 2.55 µM. It also gave a TGI (SK-MEL-2 melanoma) of 6.82 µM, a GI50 (MCF7 breast) of 3.31 µM and a TGI (MCF7 breast) of 20.4 µM. For the same compound, the GI50 (786-0 renal) was 10.6 µM, the TGI (786-0 renal) was over 83.1 µM and the GI50 (UO-31 renal) was over 69.3 µM. It also gave a TGI (UO-31 renal) of over 100 µM, a GI50 (HL-60(TB) leukemia) of 22.1 µM and a TGI (HL-60(TB) leukemia) of 66.6 µM. It also gave a GI50 (MDA-MB-435) of 11.2 µM, a TGI (MDA-MB-435) of 26.7 µM and a GI50 (MDA-MB-231 breast) of 3.56 µM. The TGI (MDA-MB-231 breast) was 36.1 µM, the GI50 (SR leukemia) was 2.37 µM and the TGI (SR leukemia) was 10.1 µM. The GI50 (HS 578T breast) was 1.69 µM, the TGI (HS 578T breast) was 5.54 µM and the GI50 (SK-MEL-5 melanoma) was 14.1 µM. It also gave a TGI (SK-MEL-5 melanoma) of 39.4 µM, a GI50 (MOLT-4 leukemia) of 4.39 µM and a TGI (MOLT-4 leukemia) of 51.6 µM. For the same compound, the GI50 (CCRF-CEM leukemia) was 3.26 µM, the TGI (CCRF-CEM leukemia) was 14.4 µM and the GI50 (NCI/ADR-RES ovarian) was over 100 µM. For the same compound, the TGI (NCI/ADR-RES ovarian) was over 100 µM, the GI50 (SF-539 CNS) was 1.61 µM and the TGI (SF-539 CNS) was 8.17 µM. For the same compound, the GI50 (NCI-H522 lung) was 0.916 µM, the TGI (NCI-H522 lung) was 3.55 µM and the GI50 (HOP-92 NSCLC) was 1.38 µM. The TGI (HOP-92 NSCLC) was 4.51 µM, the GI50 (A498 renal) was 7.01 µM and the TGI (A498 renal) was 29 µM. For the same compound, the GI50 (HCC-2998 colon) was 9.95 µM, the TGI (HCC-2998 colon) was 35.5 µM and the GI50 (ACHN renal) was 19.2 µM. The TGI (ACHN renal) was over 100 µM, the GI50 (SNB-75 CNS) was 1.88 µM and the TGI (SNB-75 CNS) was 5.77 µM. The GI50 (OVCAR-4 ovarian) was 2.84 µM, the TGI (OVCAR-4 ovarian) was 9.92 µM and the GI50 (MALME-3M melanoma) was 6.98 µM. The TGI (MALME-3M melanoma) was 26.9 µM, the GI50 (COLO 205 colon) was 3.46 µM and the TGI (COLO 205 colon) was 9.85 µM. The GI50 (KM12 colon) was 0.868 µM, the TGI (KM12 colon) was 51.4 µM and the GI50 (LOX IMVI melanoma) was 3.24 µM. The TGI (LOX IMVI melanoma) was 15.1 µM, the GI50 (SNB-19 CNS) was 4.26 µM and the TGI (SNB-19 CNS) was 34.9 µM. The GI50 (UACC-62 melanoma) was 5.02 µM, the TGI (UACC-62 melanoma) was 20.3 µM and the GI50 (OVCAR-5 ovarian) was 6.06 µM. For the same compound, the TGI (OVCAR-5 ovarian) was over 95.4 µM, the GI50 (SK-OV-3 ovarian) was 7.8 µM and the TGI (SK-OV-3 ovarian) was 68.6 µM. For the same compound, the GI50 (OVCAR-3 ovarian) was 2.92 µM, the TGI (OVCAR-3 ovarian) was 24.8 µM and the GI50 (RXF 393 renal) was 2.56 µM. The TGI (RXF 393 renal) was 11.7 µM, the GI50 (BT-549 breast) was 3.06 µM and the TGI (BT-549 breast) was 8.32 µM. For the same compound, the GI50 (TK-10 renal) was 15.3 µM, the TGI (TK-10 renal) was 62.8 µM and the GI50 (PC-3 prostate) was 4.99 µM. It also gave a TGI (PC-3 prostate) of 47.8 µM, a GI50 (RPMI-8226 leukemia) of 11 µM and a TGI (RPMI-8226 leukemia) of 43.9 µM. It also gave a GI50 (SN12C renal) of 0.795 µM, a TGI (SN12C renal) of 13.4 µM and a GI50 (HCT-116 colon) of 3.43 µM. It also gave a TGI (HCT-116 colon) of over 100 µM, a GI50 (IGROV1 ovarian) of 5.46 µM and a TGI (IGROV1 ovarian) of 17.6 µM. The GI50 (DU-145 prostate) was 9.09 µM, the TGI (DU-145 prostate) was over 100 µM and the GI50 (SW-620 colon) was 6.83 µM. The TGI (SW-620 colon) was 52.1 µM, the GI50 (A549 NSCLC) was 22.8 µM and the TGI (A549 NSCLC) was over 100 µM.
